Measurements published in US10660967B2, “Curcumin conjugates and methods of use thereof” (priority 2016, dated 2020).

Test system: carrageenan induced paw edema
Experiment: Anti-inflammatory activity: acute carrageenan induced paw edema in rats
Format: in vivo, Wister rats
Settings: 10 mg kg^−1 indomethacin mol equivalent; for % inhibition of edema / Mean edema thickness: intraperitoneally; for Mean edema thickness: mean ± SE; for Potency (% inhibition of edema relative to that of indomethacin reference standard): at 4 h effect
Protocol: The anti-inflammatory activity of the tested compounds was determined in vivo by the acute carrageenan induced paw edema standard method in rats. See, Naumov, et al., Bioorg. Med. Chem. Lett, 25: 2314-2320 (2015), Tiwari, et al., Org. Biomol. Chem, 12: 7238-7249 (2014), Girgis, et al., Eur. J. Med. Chem, 50: 1-8 (2012), Barsoum, et al., Eur. J. Med. Chem, 44: 2172-2177 (2009), Girgis, et al., Eur. J. Med. Chem, 44: 1972-1977 (2009), Girgis, et al., Eur. J. Med. Chem, 44: 1257-1264 (2009), Girgis, et al., Eur. J. Med. Chem, 44: 91-100 (2009), Girgis, et al., Eur. J. Med. Chem, 43: 2116-2121 (2008), Girgis, et al., Bioorg. Med. Chem, 14: 8527-8532 (2006), and Barsoum, et al., Bioorg. Med. Chem, 14: 3929-3937 (2006).
Adult Wister rats of either sex (pregnant female animals were excluded) weighing 120-150 g were divided into 18 groups of 6 animals each. […] The control group was given DMSO only. Carrageenan paw edema was induced by subcutaneous injection of freshly prepared 1% solution of carrageenan in saline (0.9%, 0.1 ml per rat) into subplantar tissue of the right hind paw of rats. The thickness of the paw was measured (in mm) after successive time intervals (1, 2,3,4 and 24 h) and compared with the initial hind paw thickness of each rat for determining the edema thickness. Data were collected, checked, revised and analyzed. Quantitative variables from normal distribution were expressed as means±SE “standard error”. The anti-inflammatory activity was expressed as percentage inhibition of edema thickness in treated animals in comparison with the control group according to eqn. (1)
Where, Vc and Vt are the mean of edema paw thickness for the control and tested compound treated animal groups, respectively.

Row | Structure (SMILES) | % inhibition of edema (1 h) [%] | Mean edema thickness (1 h) [mm] | % inhibition of edema (2 h) [%] | Mean edema thickness (2 h) [mm] | % inhibition of edema (3 h) [%] | Mean edema thickness (3 h) [mm] | % inhibition of edema (4 h) [%] | Mean edema thickness (4 h) [mm] | % inhibition of edema (24 h) [%] | Mean edema thickness (24 h) [mm] | Potency (% inhibition of edema relative to that of indomethacin reference standard)
1 | COc1cc(/C=C/C(=O)CC(=O)/C=C/c2ccc(OC(=O)[C@@H](C)NC(=O)OC(C)(C)C)c(OC)c2)ccc1OC(=O)[C@@H](C)NC(=O)OC(C)(C)C [Compound 26] | 22 | 1.87 ± 0.13 | 29 | 1.46 ± 0.21 | 39 | 1.09 ± 0.11 | 42 | 0.81 ± 0.08 | 37 | 0.52 ± 0.05 | 48
2 | COc1cc(/C=C/C(=O)CC(=O)/C=C/c2ccc(OC(=O)CNC(=O)OCC3c4ccccc4-c4ccccc43)c(OC)c2)ccc1OC(=O)CNC(=O)OCC1c2ccccc2-c2ccccc21 [Compound 13] | 40 | 1.45 ± 0.15 | 62 | 0.78 ± 0.16 | 74 | 0.47 ± 0.11 | 79 | 0.29 ± 0.04 | 82 | 0.15 ± 0.02 | 91
3 | COc1cc(/C=C/C(=O)CC(=O)/C=C/c2ccc(OC(=O)[C@H](C)NC(=O)OCC3c4ccccc4-c4ccccc43)c(OC)c2)ccc1OC(=O)[C@H](C)NC(=O)OCC1c2ccccc2-c2ccccc21 [Compound 14] | 12 | 2.12 ± 0.29 | 23 | 1.59 ± 0.15 | 43 | 1.02 ± 0.17 | 56 | 0.62 ± 0.09 | 51 | 0.41 ± 0.05 | 64
4 | COc1cc(/C=C/C(=O)CC(=O)/C=C/c2ccc(O)c(OC)c2)ccc1O [Compound 4] | 12 | 2.12 ± 0.19 | 60 | 0.82 ± 0.11 | 75 | 0.45 ± 0.08 | 85 | 0.21 ± 0.08 | 36 | 0.53 ± 0.10 | 98
5 | COc1cc(/C=C/C(=O)CC(=O)/C=C/c2ccc(OC(=O)CN)c(OC)c2)ccc1OC(=O)CN.Cl.Cl [Compound 33] | 66 | 0.82 ± 0.09 | 67 | 0.69 ± 0.03 | 74 | 0.46 ± 0.03 | 88 | 0.17 ± 0.01 | 42 | 0.48 ± 0.03 | 101
